# Source: patent publication US20230136562A1, “SPIROUREA DERIVATIVES” (Idorsia Pharmaceuticals Ltd, priority 2020, published 2023)
# Counter-ions that a name gives are not always drawn. Like-named read-outs stand apart in the source and are kept apart here.
# Tests used:
# DBA/2J mice = test: Audiogenic seizure-sensitive mouse model of generalized convulsive seizures (AGS); assay type: in vivo; settings: challenge 1 h, 90% MC 0.5% + 10% PEG400, read-out: Seizure stage [% vs. vehicle]; for change in vivo at 30 mg/kg: 30 mg/kg po
# Method: Formulation and Administration.
# Compounds were formulated in a 10% polyethylene glycol 400 (PEG 400)/90% aqueous solution of 0.5% methylcellulose (MC 0.5%). Firstly drugs are dissolved in PEG 400 and then suspended in MC 0.5% for oral gavage at X mg/5 mL/kg (X see table).
# Audiogenic Seizure-Sensitive Mouse Model of Generalized Convulsive Seizures
# 1. Procedure: Following two days of acclimatisation, auditory seizures are induced in male juvenile DBA/2J mice (22-24 days old). Each mouse is placed individually in the exposure chamber, an hemispheric acrylic glass dome (diameter: 50 cm) within a sound-attenuated box. The sound-attenuated box is equipped with two house lights and a camera system (Fire-I from Unibrain) in order to observe and record the behavioral seizure response. After 60 seconds of habituation, the stimulus, a mixed frequency tone of 15-20 kHz at 110 dB (SASLab Lite, Avisoft Bioacoustics), is played from a speaker that is placed on the top center of the dome. […] Seizures are classified as following: stage 0, normal behavior; stage 1, wild running; stage 2, generalized clonus; stage 3, tonic extension of the hind limbs.
# 2. Compounds testing: Acute compound effects on audiogenic generalized convulsive seizures are evaluated in independent groups of 8-10 mice randomly assigned. Following oral administration of compound or vehicle, the maximum seizure stage during sound exposure is assessed. Compounds are given 1 hour before exposure to the stimulus. Each mouse is exposed to the auditory stimulus only once and euthanized afterwards by CO2 inhalation.
# [1] = system: primary neuronal cultures from embryonic rat brains; test: Rat oscillation assay (FLIPR, neuronal calcium oscillations); assay type: cell-based
# How it was run: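 Cortical neurons from E18 Wistar rat embryos, cultured 8–10 days at high density, loaded with 1 μM Fluo-8 AM; calcium oscillations recorded by FLIPR once per second in Mg-free HBSS with 2 mM CaCl2, 20 mM HEPES, pH 7.4. Two acquisitions ("Acute", 500 sec, compound added at 250 sec; "20 min"), ± Kv7 blocker XE-991.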
# Kv7.2/7.3 = biological target: T1, Kv7.2/7.3 (Homo sapiens, UniProt O43525+O43526); test: Kv7.2/3 assay (FLIPR potassium assay, agonist mode); assay type: cell-based; settings: Kv7.2/7.3 activation; HEK293 cells, human KCNQ2 and KCNQ3
# T1 construct: expressed in transfected cells; host or cells: HEK293
# Method: HEK293 cells were stably transfected with the appropriate ion channel cDNA(s) (human KCNQ2 and KCNQ3 genes). Cells were cultured in Dulbecco's Modified Eagle Medium/Nutrient mixture F-12 (D-MEM/F-12) supplemented with 10% fetal bovine serum, 100 U/mL penicillin G sodium, 100 µg/mL streptomycin sulfate and selection antibiotics. FLIPR Test Procedure: For FLIPR assay, cells were plated in 384-well black clear-bottomed microtiter plates (BD Biocoat Poly-D-Lysine Multiwell Cell Culture Plate) at 15'000 to 30'000 cells per well. Cells were incubated at 37° C. overnight or until cells reached sufficient density in the wells (near confluent monolayer) to use in fluorescence assays. […] Assays were performed with the FLIPR potassium assay kit (Molecular Devices) according to the manufacturer's instructions. Dye-loading: Growth media was removed and replaced with 20 μL of dye loading buffer for 60 min at room temperature. FLIPR Recording (agonist mode): Stock solutions of test compounds were prepared at a concentration of 33.3 mM in DMSO. 5 μL of 5× concentrated test, vehicle, or control compounds solutions prepared in the stimulation buffer (K^+-free buffer with 5 mM TI^+) were added to each well and fluorescence recording was continued for 5 min. The agonist effect (EC50 and % effect) of test or control compounds on Kv7 channels was determined as follows: Raw data was exported using Screenworks® 4.2 software and the fluorescence traces were analysed using Microsoft Excel (Microsoft Corp., Redmond, Wash.). The test compounds responses were expressed as % of maximum response of the control compound Flupirtine (Sigma-Aldrich), which was tested at concentrations ranging from 0.03 to 100 μM. Concentration-response data were fitted to a Hill equation. Non-linear least squares fits were made assuming a simple binding model. If appropriate, fits were weighted by the standard deviation. No assumptions about the fit parameters were made; the fit parameters were determined by the algorithm.
# [2] = Rattus norvegicus, 20 min, AUC of fluorescence measured 20 min after compound addition, read-out: FLIPR: IC50 [nM] 20 min
# [3] = Rattus norvegicus, Acute phase, ratio of AUC fluorescence before and after compound addition, read-out: FLIPR: IC50 [nM] acute
EC50 (Kv7.2/7.3) [nM],Compound,"IC50 [1, 2] [nM]","IC50 [1, 3] [nM]",other results
–,"CC(NC(=O)NC1CC2(CCC2)C1)c1ccnc(OC(F)F)c1 (racemic) [Example 100 (HCl salt), (±)-1-[1-(2-Difluoromethoxy-pyridin-4-yl)-ethyl]-3-spiro[3.3]hept-2-yl-urea]",–,–,change in vivo at 33 mg/kg (DBA/2J mice; 33 mg/kg po): -71%
–,"COCC(Oc1cc(CNC(=O)NC2CC3(CCC3)C2)ccn1)C(F)(F)F (single isomer, unassigned) [Example 172, 1-Spiro[3.3]hept-2-yl-3-[2-(2,2,2-trifluoro-1-methoxymethyl-ethoxy)-pyridin-4-ylmethyl]-urea]",–,–,"IC50 ([1]; AUC of fluorescence measured 20 min after compound addition, read-out: FLIPR: IC50 [nM] 20 min): 37 nM; IC50 ([1]; Acute phase, ratio of AUC fluorescence before and after compound addition, read-out: FLIPR: IC50 [nM] acute): 38 nM; change in vivo at 30 mg/kg (DBA/2J mice): -81%"
30,"C[C@H](NC(=O)NC1CC2(CCC2)C1)c1cccc(C(F)(F)F)c1 (single isomer, unassigned) [Example 175]",5.5,9,–
7,"C[C@H](NC(=O)NC1CC2(CCC2)C1)c1ccc(F)c(OCC(F)(F)F)c1 (single isomer, unassigned) [Example 177]",24,22,–
–,"C[C@H](NC(=O)NC1CC2(CCC2)C1)c1cc(OCC(F)(F)F)ncn1 (single isomer, unassigned) [Example 182]",13,11,change in vivo at 5 mg/kg (DBA/2J mice; 5 mg/kg po): -100%
30,"O=C(NCc1cccc(C(F)(F)F)c1)NC1CC2(CCC2)C1 [Example 1, 1-Spiro[3.3]hept-2-yl-3-(3-trifluoromethyl-benzyl)-urea]",20,27,–
1.5,"O=C(NCc1cccc(C2(C(F)(F)F)CC2)c1)NC1CC2(CCC2)C1 [Example 37, 1-Spiro[3.3]hept-2-yl-3-[3-(1-trifluoromethyl-cyclopropyl)-benzyl]-urea]",8.1,10,–
42,"Cc1nc(CNC(=O)NC2CC3(CCC3)C2)cc(OCC(F)(F)F)n1 [Example 60, 1-[2-Methyl-6-(2,2,2-trifluoro-ethoxy)-pyrimidin-4-ylmethyl]-3-spiro[3.3]hept-2-yl-urea]",144,109,–
1.5,"O=C(NCc1ccnc(OCC(F)(F)F)c1)NC1CC2(CCC2)C1 [Example 103, 1-Spiro[3.3]hept-2-yl-3-[2-(2,2,2-trifluoro-ethoxy)-pyridin-4-ylmethyl]-urea]",7.4,4.8,–
161,"O=C(NCc1ccnc(NCC(F)(F)F)c1)NC1CC2(CCC2)C1 [Example 116, 1-Spiro[3.3]hept-2-yl-3-[2-(2,2,2-trifluoro-ethylamino)-pyridin-4-ylmethyl]-urea]",609,530,–
–,"O=C(NCc1cccc(C(F)(F)F)c1F)NC1CC2(CC2)C1 [Example 149, 1-(2-Fluoro-3-trifluoromethyl-benzyl)-3-spiro[2.3]hex-5-yl-urea]",103,98,–
–,"O=C(NCc1cccc(C(F)(F)F)c1Cl)NC1CC2(CC2)C1 [Example 150, 1-(2-Chloro-3-trifluoromethyl-benzyl)-3-spiro[2.3]hex-5-yl-urea]",1160,1080,–
–,"O=C(NCc1cc(C(F)(F)F)ccc1F)NC1CC2(CC2)C1 [Example 151, 1-(2-Fluoro-5-trifluoromethyl-benzyl)-3-spiro[2.3]hex-5-yl-urea]",419,269,–
–,"O=C(NCc1ccnc(OC(F)(F)F)c1)NC1CC2(CC2)C1 [Example 153, 1-Spiro[2.3]hex-5-yl-3-(2-trifluoromethoxy-pyridin-4-ylmethyl)-urea]",601,336,–
–,"O=C(NCc1cccc(OC(F)F)c1)NC1CC2(CC2)C1 [Example 155, 1-(3-Difluoromethoxy-benzyl)-3-spiro[2.3]hex-5-yl-urea]",163,151,change in vivo at 30 mg/kg (DBA/2J mice): -100%
–,"O=C(NCc1cccc(OC(F)(F)F)c1)NC1CC2(CC2)C1 [Example 156, 1-Spiro[2.3]hex-5-yl-3-(3-trifluoromethoxy-benzyl)-urea]",83,60,–
–,"O=C(NCc1cccc(OCC(F)(F)F)c1)NC1CC2(CC2)C1 [Example 157, 1-Spiro[2.3]hex-5-yl-3-[3-(2,2,2-trifluoro-ethoxy)-benzyl]-urea]",156,74,–
–,"O=C(NCc1cccc(C(F)F)c1)NC1CC2(CC2)C1 [Example 158, 1-(3-Difluoromethyl-benzyl)-3-spiro[2.3]hex-5-yl-urea]",414,390,–
–,"O=C(NCc1ccnc(OCC(F)(F)F)c1)NC1CC2(CC2)C1 [Example 159, 1-Spiro[2.3]hex-5-yl-3-[2-(2,2,2-trifluoro-ethoxy)-pyridin-4-ylmethyl]-urea]",47,26,change in vivo at 30 mg/kg (DBA/2J mice): -100%
–,"O=C(NCc1ccnc(OCC(F)(F)F)c1)NC1CC2(C1)CC(F)(F)C2 [Example 160, 1-(6,6-Difluoro-spiro[3.3]hept-2-yl)-3-[2-(2,2,2-trifluoro-ethoxy)-pyridin-4-ylmethyl]-urea]",253,83,change in vivo at 30 mg/kg (DBA/2J mice): -100%
